In US4898870A, “Pyrroloquinoline quinone compounds useful as an enzyme inhibitor” (Sogo Pharmaceutical Company Limited, priority 1986, dated 1990):
Values joined by “and” are separate entries in the source; they are usually repeats but may differ in a detail not shown here. Identical values can stand only once. Counter-ions that a name gives are not always drawn. Values belong to the molecule of their own block, whether it stands above or below them.

How the values were obtained:
Assay type in all cases: biochemical
[1] = biological target: T1, human placental aldose reductase (Homo sapiens, UniProt P15121); assay: Inhibition of human placental aldose reductase; conditions: for IC50: human placenta enzyme; for IC100: read-out: concentration inhibiting the activity by 100%
T1 construct: An enzyme solution was prepared from human placenta; from tissue; host or cells: human placenta
Method: (§1) Specifically reaction was started by adding dl-glyceraldehyde as a substrate to a reaction solution containing rat lens homogenate, Li2 SO4, NADPH2 and inhibitor, and the enzyme activity was measured by the decrease of the optical absorption of NADPH2 (optical density: OD) at 340 nm for 5 min. The solution with no addition of the substrate was used for the blank OD. The inhibiting ratio for the aldose reductase reaction by the inhibitor was determined by the following equation: [formula]
The determination of enzyme activity was same as in Test Example 1 except enzyme source was human placenta.
(§2) To a reaction solution containing the chick lens homogenate, Li2 SO4, NADPH2 and an inhibitor, was added dlglyceraldehyde as substrate to start the reaction, and the enzymatic activity was determined by measuring the decrease in optical density (OD) of NADPH2 at 340 nm after five minutes. A solution with no substrate added was used for the blank test. The inhibition rate against the aldose reductase reaction was calculated from the following equation: [formula]
An enzyme solution was prepared from human placenta, and the inhibitory action of PQQ·2K against human placental aldose reductase was measured in the same way as in Test Example 4.
An enzyme solution was prepared from human placenta, and the inhibitory action of PQQ·3Me against human placental aldose reductase was measured in the same way as in Test Example 4.
An enzyme solution was prepared from human placenta, and the inhibitory action of PQQ·2Me.Et against human placental aldose reductase was measured in the same way as in Test Example 4.

[2] = biological target: T2, rat lens aldose reductase (Rattus norvegicus, UniProt P07943); assay: Inhibition of rat lens aldose reductase (NADPH2 OD decrease at 340 nm); conditions: for IC50: rat lens homogenate, substrate dl-glyceraldehyde; for inhibition at 10 µM: inhibitor 10^-5 M/reaction soln.; for inhibition at 1 µM: inhibitor 10^-6 M/reaction soln.; for IC100: rat lens, read-out: concentration inhibiting the activity by 100%
T2 construct: A homogenate of rat lens was used; from tissue; host or cells: rat lens (crude homogenate; in later tests the 3,000 rpm supernatant)
Method: A homogenate of rat lens was used and the activity of aldose reductase was measured by the method of Kinoshita, et. al. (Kinoshita J. H., et al, Metabolism, 28, 462-469, (1979)).
as §1, §2
A homogenate of rat lens was centrifuged for four minutes at 3,000 rpm under cooling, the supernatant was collected as an enzyme solution, and the inhibitory action of PQQ·H2 against aldose reductase was measured in the same way as in Test Example 4.
An enzyme solution was prepared from rat lens in the same manner as in Test Example 10, and the inhibitory action of PQQ·3Me against rat lens aldose reductase was measured in the same way as in Test Example 4.

[3] = tested on: chick lens aldose reductase; assay: Inhibition of chick lens aldose reductase; conditions: for concentration inhibiting the activity by 100%: chick lens; for IC50: chick lens homogenate, read-out: concentration inhibiting the aldose reductase activity by 50%
Method: The activity of aldose reductase was measured according to the method of Kinoshita et al. [Metabolism, 28, 462-469 (1979)] using a homogenate of chick lens.
as §2
An enzyme solution was prepared from chick lens in the same manner as in Test Example 4, and the inhibitory action of PQQ·H2 against aldose reductase was measured in the same way as in Test Example 4.
An enzyme solution was prepared from chick lens in the same manner as in Test Example 4, and the inhibitory action of PQQ·3Me against aldose reductase was measured in the same way as in Test Example 4.

[4] = biological target: T3, bovine lens aldose reductase (Bos taurus, UniProt P16116); assay: Inhibition of bovine lens aldose reductase; conditions: for IC50: bovine lens enzyme; for IC100: bovine lens, read-out: concentration inhibiting the activity by 100%; for inhibition at 4 µM: inhibitor 4 × 10^-6 M/reaction soln.; for inhibition at 6 µM: inhibitor 6 × 10^-6 M/reaction soln.; for inhibition at 8 µM: inhibitor 8 × 10^-6 M/reaction soln.; for inhibition at 10 µM: inhibitor 10^-5 M/reaction soln.; for inhibition at 1 µM: inhibitor 10^-6 M/reaction soln.; for inhibition at 0.1 µM: inhibitor 10^-7 M/reaction soln.
T3 construct: A homogenate of bovine lens was centrifuged for ten minutes at 20,000 rpm under cooling; from tissue; host or cells: bovine lens (20,000 rpm supernatant of homogenate)
Method: as §1
The determination of enzyme activity was same as in Test Example 1 except enzyme source was bovine lens.
as §2
A homogenate of bovine lens was centrifuged for ten minutes at 20,000 rpm under cooling, the supernatant was collected as an enzyme solution, and the inhibitory action of PQQ against aldose reductase was measured in the same way as in Test Example 4.
A homogenate of bovine lens was centrifuged for ten minutes at 20,000 rpm under cooling, the supernatant was collected as an enzyme solution, and the inhibitory action of PQQ·H2 against bovine lens aldose reductase was measured in the same way as in Test Example 4.
An enzyme solution was prepared from chick lens in the same manner as in Test Example 9, and the inhibitory action of PQQ·3Me against bovine lens aldose reductase was measured in the same way as in Test Example 4.

[5] = inhibitor 2 × 10^-6 M/reaction soln., read-out: Inhibition Rate
[6] = inhibitor 4 × 10^-6 M/reaction soln., read-out: Inhibition Rate
[7] = inhibitor 10^-6 M/reaction soln.
[8] = inhibitor 10^-7 M/reaction soln.
[9] = inhibitor 10^-5 M/reaction soln.
[10] = inhibitor 10^-4 M/reaction soln., read-out: Inhibition Rate

- IC50 [1]: 1920 nM and 1900 nM
- IC100 ([1]; human placenta): 4 µM
- inhibition at 2 µM [1, 5]: 51.4%
- inhibition at 3 µM ([1]; inhibitor 3 × 10^-6 M/reaction soln., read-out: Inhibition Rate): 83.3%
- inhibition at 4 µM [1, 6]: 100%
- inhibition at 0.9 µM ([1]; inhibitor 9 × 10^-7 M/reaction soln., read-out: Inhibition Rate): 8.3%
- inhibition at 1 µM ([1]; inhibitor 10^-6 M/reaction soln., read-out: Inhibition Rate): 26.9%
- IC50 [2]: 2000 nM
Molecule: O=C(O)c1cc(C(=O)O)c2c(n1)C(=O)C(=O)c1cc(C(=O)O)[nH]c1-2 [PQQ.2K, PQQ dipotassium salt]

- concentration inhibiting the activity by 100% ([1]; human placenta): 2.5 µM
- IC50 [1]: 420 nM
- Inhibition Rate ([1]; inhibitor 1.25 × 10^-6 M/reaction soln.): 97.1%
- Inhibition Rate ([1]; inhibitor 2 × 10^-7 M/reaction soln.): 17.6%
- Inhibition Rate ([1]; inhibitor 2.5 × 10^-6 M/reaction soln.): 100%
- Inhibition Rate ([1]; inhibitor 3 × 10^-7 M/reaction soln.): 29.3%
- Inhibition Rate ([1]; inhibitor 5 × 10^-7 M/reaction soln.): 59.0%
- Inhibition Rate [1, 7]: 91.2%
- Inhibition Rate [1, 8]: 0%
Molecule: PQQ dimethyl ethyl ester [PQQ.2Me.Et]

- IC50 [1]: 390 nM
- IC100 ([1]; human placenta): 2.5 µM
- inhibition at 0.2 µM ([1]; inhibitor 2 × 10^-7 M/reaction soln., read-out: Inhibition Rate): 15%
- inhibition at 2.5 µM ([1]; inhibitor 2.5 × 10^-6 M/reaction soln., read-out: Inhibition Rate): 100%
- inhibition at 0.3 µM ([1]; inhibitor 3 × 10^-7 M/reaction soln., read-out: Inhibition Rate): 34.4%
- inhibition at 0.4 µM ([1]; inhibitor 4 × 10^-7 M/reaction soln., read-out: Inhibition Rate): 50.6%
- inhibition at 5 µM ([1]; inhibitor 5 × 10^-6 M/reaction soln., read-out: Inhibition Rate): 100%
- inhibition at 0.5 µM ([1]; inhibitor 5 × 10^-7 M/reaction soln., read-out: Inhibition Rate): 63.9%
- inhibition at 0.08 µM ([1]; inhibitor 8 × 10^-8 M/reaction soln., read-out: Inhibition Rate): 1.7%
- inhibition at 0.1 µM ([1]; inhibitor 10^-7 M/reaction soln., read-out: Inhibition Rate): 10%
- concentration inhibiting the activity by 100% [3]: 8 µM
- IC50 [3]: 3000 nM
- Inhibition Rate ([3]; inhibitor 2 × 10^-6 M/reaction soln.): 30.0%
- Inhibition Rate ([3]; inhibitor 4 × 10^-6 M/reaction soln.): 77.1%
- Inhibition Rate ([3]; inhibitor 6 × 10^-6 M/reaction soln.): 87.1%
- Inhibition Rate ([3]; inhibitor 8 × 10^-6 M/reaction soln.): 100%
- Inhibition Rate [3, 9]: 100%
- Inhibition Rate [3, 7]: 0%
- inhibition at 2 µM [2, 5]: 3.3%
- inhibition at 4 µM [2, 6]: 23.5%
- inhibition at 6 µM ([2]; inhibitor 6 × 10^-6 M/reaction soln., read-out: Inhibition Rate): 54.4%
- inhibition at 8 µM ([2]; inhibitor 8 × 10^-6 M/reaction soln., read-out: Inhibition Rate): 98.9%
- inhibition at 100 µM [2, 10]: 100%
- inhibition at 10 µM ([2]; read-out: Inhibition Rate): 100%
- inhibition at 1 µM ([2]; read-out: Inhibition Rate): 0%
- IC50 [2]: 5800 nM
- IC100 [2]: 10 µM
- concentrations at which effective ([4]; bovine lens (Table 13)): ≥ 10^-6 M
- IC50 [4]: 4200 nM
- IC100 [4]: 6 µM
- inhibition at 2 µM [4, 5]: 22.6%
- inhibition at 4 µM ([4]; read-out: Inhibition Rate): 45.8%
- inhibition at 6 µM ([4]; read-out: Inhibition Rate): 100%
- inhibition at 8 µM ([4]; read-out: Inhibition Rate): 100%
- inhibition at 10 µM ([4]; read-out: Inhibition Rate): 100%
- inhibition at 1 µM ([4]; read-out: Inhibition Rate): 10%
- inhibition at 0.1 µM ([4]; read-out: Inhibition Rate): 0%
Molecule: COC(=O)c1cc(C(=O)OC)c2c(n1)C(=O)C(=O)c1cc(C(=O)OC)[nH]c1-2 [PQQ.3Me, PQQ trimethyl ester]

- concentration inhibiting the activity by 100% [3]: 60 µM
- IC50 [3]: 6000 nM
- Inhibition Rate ([3]; inhibitor 2 × 10^-5 M/reaction soln.): 68.4%
- Inhibition Rate ([3]; inhibitor 4 × 10^-5 M/reaction soln.): 92.8%
- Inhibition Rate ([3]; inhibitor 6 × 10^-5 M/reaction soln.): 100%
- Inhibition Rate ([3]; inhibitor 8 × 10^-5 M/reaction soln.): 100%
- Inhibition Rate ([3]; inhibitor 10^-4 M/reaction soln.): 100%
- Inhibition Rate [3, 9]: 62.1%
- Inhibition Rate [3, 7]: 31.8%
- Inhibition Rate [3, 8]: 0%
- inhibition at 20 µM ([2]; inhibitor 2 × 10^-5 M/reaction soln., read-out: Inhibition Rate): 100%
- inhibition at 10 µM ([2]; read-out: Inhibition Rate): 59.5%
- inhibition at 1 µM ([2]; read-out: Inhibition Rate): 15.1%
- Inhibition Rate ([2]; inhibitor concentration not printed (first line of Table 11)): 0%
- IC50 [2]: 8500 nM
- IC100 [2]: 20 µM
- IC50 [4]: 5000 nM
- IC100 [4]: 8 µM
- inhibition at 4 µM ([4]; read-out: Inhibition Rate): 27.8%
- inhibition at 6 µM ([4]; read-out: Inhibition Rate): 89.9%
- inhibition at 8 µM ([4]; read-out: Inhibition Rate): 100%
- inhibition at 100 µM [4, 10]: 100%
- inhibition at 10 µM ([4]; read-out: Inhibition Rate): 100%
- inhibition at 1 µM ([4]; read-out: Inhibition Rate): 0%
- inhibition at 0.1 µM ([4]; read-out: Inhibition Rate): 0%
Molecule: O=C(O)c1cc(C(=O)O)c2c(n1)c(O)c(O)c1cc(C(=O)O)[nH]c12 [PQQ.H2, PQQ reduced form]
